From patent publication US8697696B2, “Triazole compounds II” (Roche Palo Alto LLC, priority 2010, dated 2014)

target: human GABA A α5β3γ2 receptor (Homo sapiens (Human), UniProt P18507+P31644); assay: [3H]flumazenil competition radioligand binding assay, human GABA A α5β3γ2 receptors in HEK293 cells; conditions: HEK293 cells expressing human receptors (transiently transfected); 0.5 nM [3H]flumazenil; means of two determinations; read-out: hKi GABA Aα5
Procedure: The ability of compounds present invention to bind to GABA A receptor subtypes was determined by competition for [^3H]flumazenil (85 Ci/mmol; Roche) binding to HEK293 cells expressing rat (stably transfected) or human (transiently transfected) receptors of composition α1β2/3γ2, α2β3γ2, α3β3γ2 and α5β3γ2.
Cell pellets were suspended in Krebs-tris buffer (4.8 mM KCl, 1.2 mM CaCl2, 1.2 mM MgCl2, 120 mM NaCl, 15 mM Tris; pH 7.5; binding assay buffer), homogenized by polytron for ca. 20 sec on ice and centrifuged for 60 min at 4° C. (50000 g; Sorvall, rotor: SM24=20000 rpm). The cell pellets were resuspended in Krebs-tris buffer and homogenized by polytron for ca. 15 sec on ice. Protein was measured (Bradford method, Bio-Rad) and aliquots of 1 mL were prepared and stored at −80° C.
Assays were incubated to equilibrium for 1 hour at 4° C. and harvested onto GF/C uni-filters (Packard) by filtration using a Packard harvester and washing with ice-cold wash buffer (50 mM Tris; pH 7.5). After drying, filter-retained radioactivity was detected by liquid scintillation counting.
Ki values were calculated using Excel-Fit (Microsoft) and are the means of two determinations.
Representative test results, obtained by the above described assay measuring binding affinity to HEK293 cells expressing human (h) receptors, are shown in Table 1 below.

Row | Ki [nM] | SMILES
1 | 28.8 | Cn1nnc(-c2ccc(F)cc2)c1COc1cc(C(=O)NC2CCOCC2)on1 [Example 1, 3-[5-(4-Fluoro-phenyl)-3-methyl-3H-[1,2,3]triazol-4-ylmethoxyl]isoxazole-5-carboxylic acid (tetrahydro-pyran-4-yl)-amide]
2 | 45.3 | Cn1nc(OCc2c(-c3ccc(F)cc3)nnn2C)cc1C(=O)NC1CCOCC1 [Example 2, 5-[5-(4-Fluoro-phenyl)-3-methyl-3H-[1,2,3]triazol-4-ylmethoxy]-2-methyl-2H-pyrazole-3-carboxylic acid (tetrahydro-pyran-4-yl)-amide]
3 | 15.7 | Cc1nnn(-c2ccc(F)cc2)c1COc1cc(C(=O)NC2CCOCC2)n(C)n1 [Example 3, 5-[3-(4-Fluoro-phenyl)-5-methyl-3H-[1,2,3]triazol-4-ylmethoxy]-2-methyl-2H-pyrazole-3-carboxylic acid (tetrahydro-pyran-4-yl)-amide]
4 | 22.2 | Cc1nnn(-c2ccc(F)cc2)c1COc1cc(C(=O)NN2CCOCC2)n(C)n1 [Example 4, 5-[3-(4-Fluoro-phenyl)-5-methyl-3H-[1,2,3]triazol-4-ylmethoxy]-2-methyl-2H-pyrazole-3-carboxylic acid morpholin-4-ylamide]
5 | 43.2 | Cc1nnn(-c2ccc(F)cc2)c1COc1cc(C(=O)NC2(C)COC2)n(C)n1 [Example 5, 5-[3-(4-Fluoro-phenyl)-5-methyl-3H-[1,2,3]triazol-4-ylmethoxy]-2-methyl-2H-pyrazole-3-carboxylic acid (3-methyl-oxetan-3-yl)-amide]
6 | 11.3 | Cc1nc(/C=C/c2c(-c3ccc(F)cc3)nnn2C)sc1C(=O)NC(C)C [Example 6, 2-{(E)-2-[5-(4-Fluoro-phenyl)-3-methyl-3H-[1,2,3]triazol-4-yl]vinyl}-4-methyl-thiazole-5-carboxylic acid isopropylamide]
7 | 6.8 | Cc1nc(/C=C/c2c(C)nnn2-c2ccc(F)cc2)sc1C(=O)NC(C)C [Example 9, 2-{(E)-2-[3-(4-Fluoro-phenyl)-5-methyl-3H-[1,2,3]triazol-4-yl]-vinyl}-4-methyl-thiazole-5-carboxylic acid isopropylamide]
8 | 20.7 | Cc1nc(/C=C/c2c(-c3ccccn3)nnn2C)sc1C(=O)NC(C)C [Example 10, 4-Methyl-2-[(E)-2-(3-methyl-5-pyridin-2-yl-3H-[1,2,3]triazol-4-yl)-vinyl]-thiazole-5-carboxylic acid isopropylamide]
